According to patent US11254686B1 (Corvus Pharmaceuticals, Inc., priority 2017, dated 2022):

Experiments:
adenosine A2B receptor = adenosine A2B receptor (Homo sapiens (Human), UniProt P29275); assay: Adenosine receptor activity assay (Table 1), A2B activity; format: biochemical; details: for IC50: read-out: Ave A2B cAMP IC50
adenosine A2A receptor = adenosine A2A receptor (Homo sapiens (Human), UniProt P29274); assay: Adenosine receptor activity assay (Table 1), A2A activity; format: biochemical; details: read-out: Ave A2A cAMP IC50
adenosine A2A receptor, sequence (P29274 whole entry): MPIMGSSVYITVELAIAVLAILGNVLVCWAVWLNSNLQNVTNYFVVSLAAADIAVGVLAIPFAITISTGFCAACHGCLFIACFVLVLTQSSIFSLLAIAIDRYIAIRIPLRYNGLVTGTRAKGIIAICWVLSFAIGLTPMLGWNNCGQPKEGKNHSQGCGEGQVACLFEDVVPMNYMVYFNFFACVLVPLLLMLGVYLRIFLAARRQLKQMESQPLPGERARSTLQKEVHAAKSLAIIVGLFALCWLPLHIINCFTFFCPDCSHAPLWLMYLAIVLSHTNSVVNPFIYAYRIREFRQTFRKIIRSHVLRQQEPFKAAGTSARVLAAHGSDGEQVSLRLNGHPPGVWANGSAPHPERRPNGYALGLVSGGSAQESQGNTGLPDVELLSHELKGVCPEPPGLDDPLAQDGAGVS

[1] = A2A activity to the A2B activity, A2A/A2B
[2] = A2A activity to A2B activity (A2A/A2B)

adenosine A2B receptor, sequence (P29275 whole entry): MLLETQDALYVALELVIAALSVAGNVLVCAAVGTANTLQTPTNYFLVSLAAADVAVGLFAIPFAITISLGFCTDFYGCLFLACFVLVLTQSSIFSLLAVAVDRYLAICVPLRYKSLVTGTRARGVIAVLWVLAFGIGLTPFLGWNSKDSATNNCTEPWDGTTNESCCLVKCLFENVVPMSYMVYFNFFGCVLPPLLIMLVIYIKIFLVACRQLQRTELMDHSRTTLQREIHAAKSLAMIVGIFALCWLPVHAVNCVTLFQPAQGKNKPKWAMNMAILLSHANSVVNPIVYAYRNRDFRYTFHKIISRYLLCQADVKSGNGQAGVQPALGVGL

For `C[C@H](Nc1nc(C(=O)NCCC2CNC2)c2sccc2n1)c1ccccn1` [Example Z432, (S)—N-(2-(Azetidin-3-yl)ethyl)-2-((1-(pyridin-2-yl)ethyl)amino)thieno[3,2-d]pyrimidine-4-carboxamide], the Ratio (adenosine A2B receptor; [1]) was 57.47, the IC50 (adenosine A2B receptor) was 100 to 500 nM and the IC50 (adenosine A2A receptor) was > 500 nM.
For `C[C@H](Nc1nc(C(=O)NC(CO)c2cccnc2)c2sccc2n1)c1ccccn1` (stereo partly drawn) [Example Z269, N-(2-Hydroxy-1-(pyridin-3-yl)ethyl)-2-(((S)-1-(pyridin-2-yl)ethyl)amino)thieno[3,2-d]pyrimidine-4-carboxamide], the Ratio (adenosine A2B receptor; [2]) was 0.36, the IC50 (adenosine A2B receptor) was > 500 nM and the IC50 (adenosine A2A receptor) was 100 to 500 nM.
In the case of `COCCC(=O)N1CCN(C(=O)c2nc(N[C@@H](C)c3cncc(F)c3)nc3ccsc23)C1` [Example Z589, (S)-1-(3-(2-((1-(5-Fluoropyridin-3-yl)ethyl)amino)thieno[3,2-d]pyrimidine-4-carbonyl)imidazolidin-1-yl)-3-methoxypropan-1-one], the Ratio (adenosine A2B receptor; [1]) is reported as 17.96, the IC50 (adenosine A2B receptor) is reported as 10 to 50 nM and the IC50 (adenosine A2A receptor) is reported as > 500 nM.
In the case of `C[C@H](Nc1nc(C(=O)NCC2CCN(CCc3ccccc3)CC2)c2sccc2n1)c1ccccn1` [Example Z446, (S)—N-((1-Phenethylpiperidin-4-yl)methyl)-2-((1-(pyridin-2-yl)ethyl)amino)thieno[3,2-d]pyrimidine-4-carboxamide], the Ratio (adenosine A2B receptor; [1]) is reported as 0.56, the IC50 (adenosine A2B receptor) is reported as > 500 nM and the IC50 (adenosine A2A receptor) is reported as > 500 nM.
In the case of `O=C(c1nc(NCc2cncc(F)c2)nc2ccsc12)N1CCNC1` [Example Z149, (2-(((5-Fluoropyridin-3-yl)methyl)amino)thieno[3,2-d]pyrimidin-4-yl)(imidazolidin-1-yl)methanone], the Ratio (adenosine A2B receptor; [2]) is reported as 14.43, the IC50 (adenosine A2B receptor) is reported as > 500 nM and the IC50 (adenosine A2A receptor) is reported as > 500 nM.
`C[C@H](Nc1nc(C(=O)N2CC[C@@H](O)C2)c2sc(N)cc2n1)c1cccnc1` [Example Z220, (6-Amino-2-(((S)-1-(pyridin-3-yl)ethyl)amino)thieno[3,2-d]pyrimidin-4-yl)((R)-3-hydroxypyrrolidin-1-yl)methanone] was tested, and the Ratio (adenosine A2B receptor; [2]) was 44.45, the IC50 (adenosine A2B receptor) was 100 to 500 nM and the IC50 (adenosine A2A receptor) was > 500 nM.
With `C[C@H](Nc1nc(C(=O)N2CC[C@@H](N)C2)c2sccc2n1)c1ccccn1` [Example Z364, ((R)-3-Aminopyrrolidin-1-yl)(2-(((S)-1-(pyridin-2-yl)ethyl)amino)thieno[3,2-d]pyrimidin-4-yl)methanone] the Ratio (adenosine A2B receptor; [2]) was 11.16, the IC50 (adenosine A2B receptor) was 100 to 500 nM and the IC50 (adenosine A2A receptor) was > 500 nM.
`C[C@H](Nc1nc(C(=O)NCC2CCC2)c2sccc2n1)c1ccccn1` [Example Z193, (S)—N-(Cyclobutylmethyl)-2-((1-(pyridin-2-yl)ethyl)amino)thieno[3,2-d]pyrimidine-4-carboxamide] was tested, and the Ratio (adenosine A2B receptor; [2]) was 4.46, the IC50 (adenosine A2B receptor) was 10 to 50 nM and the IC50 (adenosine A2A receptor) was 50 to 100 nM.
`C[C@H](Nc1nc(C(=O)N2CC[C@H](F)C2)c2sc(N)cc2n1)c1cccnc1` [Example Z204, (6-Amino-2-(((S)-1-(pyridin-3-yl)ethyl)amino)thieno[3,2-d]pyrimidin-4-yl)((S)-3-fluoropyrrolidin-1-yl)methanone] showed a Ratio (adenosine A2B receptor; [2]) of 13.13, an IC50 (adenosine A2B receptor) of 10 to 50 nM and an IC50 (adenosine A2A receptor) of 100 to 500 nM.
Work on `O=C(NCc1cccc(F)c1)c1nc(NCc2cccc(F)c2)nc2ccsc12` [Example Z74, N-(3-Fluorobenzyl)-2-((3-fluorobenzyl)amino)thieno[3,2-d]pyrimidine-4-carboxamide] yielded a Ratio (adenosine A2B receptor; [2]) of 1.74, an IC50 (adenosine A2B receptor) of 100 to 500 nM and an IC50 (adenosine A2A receptor) of 100 to 500 nM.
With `COCC(Nc1nc(C(=O)NC2COC2)c2sccc2n1)c1cccnc1` (stereo not shown) [Example Z216, 2-((2-Methoxy-1-(pyridin-3-yl)ethyl)amino)-N-(oxetan-3-yl)thieno[3,2-d]pyrimidine-4-carboxamide] the Ratio (adenosine A2B receptor; [2]) was 5.35, the IC50 (adenosine A2B receptor) was 10 to 50 nM and the IC50 (adenosine A2A receptor) was 100 to 500 nM.
For `C[C@@H]1CCN(C(=O)c2nc(N[C@@H](C)c3ccccn3)nc3cc(N)sc23)C1` [Example Z206, (6-Amino-2-(((S)-1-(pyridin-2-yl)ethyl)amino)thieno[3,2-d]pyrimidin-4-yl)((R)-3-methylpyrrolidin-1-yl)methanone], the Ratio (adenosine A2B receptor; [2]) was 8.53, the IC50 (adenosine A2B receptor) was 10 to 50 nM and the IC50 (adenosine A2A receptor) was 100 to 500 nM.
`CCO[C@@H]1CCN(C(=O)c2nc(N[C@@H](C)c3ccccn3)nc3ccsc23)C1` [Example Z438, ((R)-3-Ethoxypyrrolidin-1-yl)(2-(((S)-1-(pyridin-2-yl)ethyl)amino)thieno[3,2-d]pyrimidin-4-yl)methanone] showed a Ratio (adenosine A2B receptor; [1]) of 2.65, an IC50 (adenosine A2B receptor) of 10 to 50 nM and an IC50 (adenosine A2A receptor) of 50 to 100 nM.
`C[C@H](CO)NC(=O)c1nc(N[C@@H](C)c2ccccn2)nc2ccsc12` [Example Z182, N—((R)-1-Hydroxypropan-2-yl)-2-(((S)-1-(pyridin-2-yl)ethyl)amino)thieno[3,2-d]pyrimidine-4-carboxamide] gave a Ratio (adenosine A2B receptor; [2]) of 5.92, an IC50 (adenosine A2B receptor) of 50 to 100 nM and an IC50 (adenosine A2A receptor) of 100 to 500 nM.
Compound `C[C@H](Nc1nc(C(=O)N[C@@H]2CC[C@@H](O)C2)c2sccc2n1)c1cncc(F)c1` [Example Z395, 2-(((S)-1-(5-Fluoropyridin-3-yl)ethyl)amino)-N-((1R,3R)-3-hydroxycyclopentyl)thieno[3,2-d]pyrimidine-4-carboxamide] has a Ratio (adenosine A2B receptor; [2]) of 32.64, an IC50 (adenosine A2B receptor) of 10 to 50 nM and an IC50 (adenosine A2A receptor) of 100 to 500 nM.
`COc1ccc(CNC(=O)c2nc(N[C@@H](C)c3ccccn3)nc3ccsc23)cc1` [Example Z474, (S)—N-(4-Methoxybenzyl)-2-((1-(pyridin-2-yl)ethyl)amino)thieno[3,2-d]pyrimidine-4-carboxamide] was tested, and the Ratio (adenosine A2B receptor; [1]) was 0.80, the IC50 (adenosine A2B receptor) was 50 to 100 nM and the IC50 (adenosine A2A receptor) was 50 to 100 nM.
In the case of `COC[C@H](Nc1nc(C(=O)NC[C@@H](C)O)c2sccc2n1)c1cccnc1` [Example Z325, N—((R)-2-Hydroxypropyl)-2-(((R)-2-methoxy-1-(pyridin-3-yl)ethyl)amino)thieno[3,2-d]pyrimidine-4-carboxamide], the Ratio (adenosine A2B receptor; [2]) is reported as 1.87, the IC50 (adenosine A2B receptor) is reported as > 500 nM and the IC50 (adenosine A2A receptor) is reported as > 500 nM.
`O=C(c1nc(NCCc2ccccc2)nc2ccsc12)N1CCCC1` [Example Z258, (2-(Phenethylamino)thieno[3,2-d]pyrimidin-4-yl)(pyrrolidin-1-yl)methanone] gave a Ratio (adenosine A2B receptor; [2]) of 1.70, an IC50 (adenosine A2B receptor) of 100 to 500 nM and an IC50 (adenosine A2A receptor) of 100 to 500 nM.
With `C[C@H](Nc1nc(C(=O)NCCO)c2sccc2n1)c1ccccn1` [Example Z106, (S)—N-(2-hydroxyethyl)-2-((1-(pyridin-2-yl)ethyl)amino)thieno[3,2-d]pyrimidine-4-carboxamide] the Ratio (adenosine A2B receptor; [2]) was 2.95, the IC50 (adenosine A2B receptor) was 10 to 50 nM and the IC50 (adenosine A2A receptor) was 100 to 500 nM.
`C[C@H](Nc1nc(C(=O)N2CCCC2)c2sccc2n1)c1ccnc(F)c1` [Example Z406, (S)-(2-((1-(2-Fluoropyridin-4-yl)ethyl)amino)thieno[3,2-d]pyrimidin-4-yl)(pyrrolidin-1-yl)methanone] was tested, and the IC50 (adenosine A2B receptor) was 10 to 50 nM and the IC50 (adenosine A2A receptor) was 100 to 500 nM.
In the case of `Cc1ncccc1CNC(=O)c1nc(NCc2cccnc2C)nc2ccsc12` [Example Z88, N-((2-Methylpyridin-3-yl)methyl)-2-(((2-methylpyridin-3-yl)methyl)amino)thieno[3,2-d]pyrimidine-4-carboxamide], the Ratio (adenosine A2B receptor; [2]) is reported as 1.00, the IC50 (adenosine A2B receptor) is reported as > 500 nM and the IC50 (adenosine A2A receptor) is reported as > 500 nM.
Work on `C[C@H](Nc1nc(C(=O)NCc2cncc(C(F)(F)F)c2)c2sccc2n1)c1ccccn1` [Example Z200, (S)-2-((1-(Pyridin-2-yl)ethyl)amino)-N-((5-(trifluoromethyl)pyridin-3-yl)methyl)thieno[3,2-d]pyrimidine-4-carboxamide] yielded a Ratio (adenosine A2B receptor; [2]) of 1.81, an IC50 (adenosine A2B receptor) of 100 to 500 nM and an IC50 (adenosine A2A receptor) of 100 to 500 nM.
`C[C@H](Nc1nc(C(=O)N2CC[C@H](NC(=O)OC(C)(C)C)C2)c2sccc2n1)c1ccccn1` [Example Z315, tert-Butyl ((S)-1-(2-(((S)-1-(pyridin-2-yl)ethyl)amino)thieno[3,2-d]pyrimidine-4-carbonyl)pyrrolidin-3-yl)carbamate] was tested, and the Ratio (adenosine A2B receptor; [2]) was 0.67, the IC50 (adenosine A2B receptor) was 50 to 100 nM and the IC50 (adenosine A2A receptor) was 50 to 100 nM.
`C[C@H](Nc1nc(C(=O)NCCO)c2sc(N)cc2n1)c1ccccn1` [Example Z209, (S)-6-Amino-N-(2-hydroxyethyl)-2-((1-(pyridin-2-yl)ethyl)amino)thieno[3,2-d]pyrimidine-4-carboxamide] was tested, and the Ratio (adenosine A2B receptor; [2]) was 30.22, the IC50 (adenosine A2B receptor) was 10 to 50 nM and the IC50 (adenosine A2A receptor) was > 500 nM.
`C[C@H](Nc1nc(C(=O)N2CCC(C(=O)NC(C)(C)C)C2)c2sccc2n1)c1cncc(F)c1` (stereo partly drawn) [Example Z548, N-(tert-Butyl)-1-(2-(((S)-1-(5-fluoropyridin-3-yl)ethyl)amino)thieno[3,2-d]pyrimidine-4-carbonyl)pyrrolidine-3-carboxamide] gave an IC50 (adenosine A2B receptor) of 10 to 50 nM and an IC50 (adenosine A2A receptor) of 100 to 500 nM.
For `Cc1cncc(CNC(=O)c2nc(NCc3cncc(C)c3)nc3ccsc23)c1` [Example Z45, N-((5-Methylpyridin-3-yl)methyl)-2-(((5-methylpyridin-3-yl)methyl)amino)thieno[3,2-d]pyrimidine-4-carboxamide], the Ratio (adenosine A2B receptor; [2]) was 1.00, the IC50 (adenosine A2B receptor) was > 500 nM and the IC50 (adenosine A2A receptor) was > 500 nM.
With `C[C@H](Nc1nc(C(=O)NCCc2cccc(Oc3ccccc3)c2)c2sccc2n1)c1cncc(F)c1` [Example Z417, (S)-2-((1-(5-Fluoropyridin-3-yl)ethyl)amino)-N-(3-phenoxyphenethyl)thieno[3,2-d]pyrimidine-4-carboxamide] the Ratio (adenosine A2B receptor; [1]) was 4.87, the IC50 (adenosine A2B receptor) was 100 to 500 nM and the IC50 (adenosine A2A receptor) was > 500 nM.
In the case of `C[C@H](Nc1nc(C(=O)N2CCC(C(=O)OC(C)(C)C)C2)c2sccc2n1)c1cncc(F)c1` (stereo partly drawn) [Example Z354, tert-Butyl 1-(2-(((S)-1-(5-fluoropyridin-3-yl)ethyl)amino)thieno[3,2-d]pyrimidine-4-carbonyl)pyrrolidine-3-carboxylate], the Ratio (adenosine A2B receptor; [2]) is reported as 6.35, the IC50 (adenosine A2B receptor) is reported as 10 to 50 nM and the IC50 (adenosine A2A receptor) is reported as 100 to 500 nM.
With `C[C@H](Nc1nc(C(=O)N[C@@H](C)CO)c2sccc2n1)c1ccccn1` [Example Z181, N—((S)-1-Hydroxypropan-2-yl)-2-(((S)-1-(pyridin-2-yl)ethyl)amino)thieno[3,2-d]pyrimidine-4-carboxamide] the Ratio (adenosine A2B receptor; [2]) was 5.43, the IC50 (adenosine A2B receptor) was 50 to 100 nM and the IC50 (adenosine A2A receptor) was 100 to 500 nM.
With `C[C@H](Nc1nc(C(=O)NCc2ccc(C#N)nc2)c2sccc2n1)c1ccccn1` [Example Z64, (S)—N-((6-Cyanopyridin-3-yl)methyl)-2-((1-(pyridin-2-yl)ethyl)amino)thieno[3,2-d]pyrimidine-4-carboxamide] the Ratio (adenosine A2B receptor; [2]) was 1.94, the IC50 (adenosine A2B receptor) was 100 to 500 nM and the IC50 (adenosine A2A receptor) was 100 to 500 nM.
